# From PMC4148444, “P. aeruginosa SGNH Hydrolase-Like Proteins AlgJ and AlgX Have Similar Topology but Separate and Distinct Roles in Alginate Acetylation” (PLoS Pathogens, 2014)
# How the values were obtained:
# [1] = test system: CC(=O)Oc1ccc2cc(C(=O)O)c(=O)oc2c1; test: purified protein; settings: up to 10% DMSO, kcat given as (×10^3 s^-1), kcat/Km implies ×10^-3, 25.0 °C
# [2] = biological target: T1, PaAlgJ79–379 (Pseudomonas aeruginosa, UniProt Q51393); test: direct ESI-MS binding assay; settings: 50 mM ammonium acetate, pH 7, 298 K; only folded (low charge state) fraction used, its concentration not accurately known; read-out: Apparent K a (M^-1) AlgJ
# T1 construct: gene algJ; soluble periplasmic domain 79-379 without TM helix 12-29; N-terminal His6 thrombin-cleaved; expressed in E. coli BL21-CodonPlus; monomer by SEC
# T1 sequence (Q51393 79-379): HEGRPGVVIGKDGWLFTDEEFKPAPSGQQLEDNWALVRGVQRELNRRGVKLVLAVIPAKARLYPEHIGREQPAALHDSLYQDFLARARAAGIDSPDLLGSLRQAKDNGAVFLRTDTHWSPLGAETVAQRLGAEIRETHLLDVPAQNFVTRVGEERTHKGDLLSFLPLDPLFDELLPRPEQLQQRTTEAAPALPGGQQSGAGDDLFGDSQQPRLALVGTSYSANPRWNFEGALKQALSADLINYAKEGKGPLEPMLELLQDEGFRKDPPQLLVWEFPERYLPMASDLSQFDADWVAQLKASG
# Text: direct ESI-MS binding assay on PaAlgJ79–379
# [3] = biological target: T2, PaAlgX27–474 (Pseudomonas aeruginosa, UniProt Q51372); test: direct ESI-MS binding assay; settings: 50 mM ammonium acetate, pH 7, 298 K; corrected for nonspecific binding; site (active site or CBM) not resolved; read-out: Apparent K a (M^-1) AlgX
# T2 construct: gene algX; residues 27-474 (mature protein, SGNH hydrolase-like domain plus C-terminal CBM)
# T2 sequence (Q51372 27-474): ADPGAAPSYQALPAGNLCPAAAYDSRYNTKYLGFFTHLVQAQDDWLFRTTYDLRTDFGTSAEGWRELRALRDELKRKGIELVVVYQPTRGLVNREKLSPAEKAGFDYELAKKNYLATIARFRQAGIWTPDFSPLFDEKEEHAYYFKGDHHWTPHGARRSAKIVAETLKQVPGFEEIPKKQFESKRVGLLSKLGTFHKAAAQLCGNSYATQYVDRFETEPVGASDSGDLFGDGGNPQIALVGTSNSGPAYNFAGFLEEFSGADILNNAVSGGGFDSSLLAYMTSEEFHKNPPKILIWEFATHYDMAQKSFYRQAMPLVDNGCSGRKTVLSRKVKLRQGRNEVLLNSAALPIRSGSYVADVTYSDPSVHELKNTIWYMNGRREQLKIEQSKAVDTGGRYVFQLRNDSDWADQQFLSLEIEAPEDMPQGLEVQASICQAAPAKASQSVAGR
# Text: direct ESI-MS binding assay on PaAlgX27–474
# [4] = test system: CC(=O)Oc1ccc2cc(C(=O)O)c(=O)oc2c1; test: fluorescence acetylesterase assay; format: biochemical, Pseudomonas putida; settings: 50 mM sodium HEPES pH 7.0, 298 K, up to 10% DMSO, kcat given as (×10^3 s^-1), kcat/Km implies ×10^-3, 25.0 °C
# Text: fluorescence acetylesterase assay on PpAlgJ75–370
# [5] = 50 mM sodium HEPES pH 8.0, 298 K
# [6] = 50 mM sodium HEPES pH 7.0, 298 K
Compound,Kd [2],Kd [3],also measured
PaAlgX27–474 (Pseudomonas aeruginosa PAO1),–,–,"Km [1, 5]: 1100 ± 96 µM; kcat [1, 5]: 11.4±0.343 ×10^-3 s^-1; kcat/Km [1, 5]: 10.3 ± 0.961 M⁻¹ s⁻¹"
O=C(O)C1OC(OC2C(C(=O)O)OC(OC3C(C(=O)O)OC(OC4C(C(=O)O)OC(OC5C(C(=O)O)OC(O)C(O)C5O)C(O)C4O)C(O)C3O)C(O)C2O)C(O)C(O)C1O (stereo not shown) [ManA5],> 2000 µM,1000 µM,–
ManA7,> 2000 µM,208 µM,–
ManA8,–,172 µM,–
CCCO[C@@H]1O[C@H](C(=O)O)[C@@H](O[C@@H]2O[C@H](C(=O)O)[C@@H](O[C@@H]3O[C@H](C(=O)O)[C@@H](O[C@@H]4O[C@H](C(=O)O)[C@@H](O[C@@H]5O[C@H](C(=O)O)[C@@H](O[C@@H]6O[C@H](C(=O)O)[C@@H](O)[C@H](O)[C@@H]6O)[C@H](O)[C@@H]5O)[C@H](O)[C@@H]4O)[C@H](O)[C@@H]3O)[C@H](O)[C@@H]2O)[C@H](O)[C@@H]1O [ManA6],> 2000 µM,312 µM,–
ManA12,–,52.6 µM,–
ManA11,–,62.5 µM,–
ManA10,–,100 µM,–
PpAlgJ75–370 (Pseudomonas putida KT2440),–,–,Km [4]: 2300 ± 96.3 µM; kcat [4]: 7.80±0.155 ×10^-3 s^-1; kcat/Km [4]: 3.39 ± 0.0688 M⁻¹ s⁻¹
ManA9,–,114 µM,–
PaAlgJ79–379 (Pseudomonas aeruginosa PAO1),–,–,"Km [1, 6]: 1160 ± 120 µM; kcat [1, 6]: 3.44±0.129 ×10^-3 s^-1; kcat/Km [1, 6]: 2.96 ± 0.324 M⁻¹ s⁻¹"
O=C(O)C1OC(OC2C(C(=O)O)OC(OC3C(C(=O)O)OC(OC4C(C(=O)O)OC(O)C(O)C4O)C(O)C3O)C(O)C2O)C(O)C(O)C1O (stereo not shown) [ManA4],> 2000 µM,1000 µM,–
